One series has as its system Bovine Phosphodiesterase. The series is described as follows: Phosphodiesterase inhibiting activity (cAMP substrate, remaining cAMP measured by HPLC). Type of series: biochemical. Particulars: for IC50: inhibition of phosphodiesterase, from Table 2 data, read-out: IC 50 values. As for the experimental part:
Fifity g of the respiratory smooth muscle of a sacrificed cow was cut into pieces with scissors and a knife, then suspended in 2 mM EDTA-containing 20 mM Tris buffer (pH 7.4) of 5 times by volume the pieces, and homogenized with a polytron homogenizer to prepare a crude phosphodiesterase liquid. This was centrifuged at 10,000 x g for 20 minutes to collect the supernatant, which is a soluble, crude phosphodiesterase liquid. This was put into a Q-Sepharose fast-flow column (100 ml), washed with a buffer, and then eluted with sodium acetate having a gradient concentration of from 50 mM to 1 M. The phosphodiesterase-containing active fraction eluted with 0.7 M sodium acetate was collected.
To determine its phosphodiesterase activity, the enzyme was reacted with a substrate, 3',5'-cyclic adenosine monophosphate (cAMP, manufactured by Sigma Co. in US). After the reaction, the remaining cAMP was measured through high-performance liquid chromatography.
0.02 mg/ml of cAMP, 2.5 mM dithiothreitol, 6 mM magnesium chloride, 50 mM Tris buffer (pH 8.0), 1 µl of the phosphodiesterase liquid prepared above, and a varying amount of the compound of the invention were put into plastic tubes having a volume of 0.3 ml, to which was added water to have a final volume of 200 µl. The mixture was stirred, and incubated at 37°C for 60 minutes. 20 µl of an aqueous solution of 200 mM tetraethylenediamine was added to each tube to stop the reaction. 20 µl of the resulting reaction mixture was subjected to high-performance liquid chromatography (ODS column of 3.9 mm⌀ x 150 mm, manufactured by Waters Co. in US), through which the remaining cAMP was measured. From the data, obtained was the activity of the compound of the invention of inhibiting the enzyme phosphodiesterase, as in Table 2.

Series [1] can be described thus: Solubility of the isolated substances in solvents. Type of series: physicochemical. Particulars: qualitative; for Solubility: various solvents. As for the experimental part: These pure NA23063A, NA23063B1, NA23063B2, NA23063C and NA23063D were tested for their appearance, molecular weight, solubility, Rf value in silica gel thin-layer column chromatography, UV absorption spectrum, IR absorption spectrum, ^1H-NMR spectrum, and ^13C-NMR spectrum. The physicochemical properties of NA23063A, B1, B2, C and D thus obtained have been shown hereinabove.

A further series has as its system guinea pig oxyphiles. The series is described as follows: Inhibition of activation of oxyphiles (PAF-induced release of active oxygen, luminol chemiluminescence). Type of series: cell-based, Hartley guinea pigs. As to conditions: Cavia porcellus, 5 min; PAF stimulation, chemiluminescence for 5 minutes; read-out: IC50 (x 10^-6 M). As to the method:
One mg of polymyxin B (manufactured by Sigma Co.) was intra-abdominally administered to Hartley guinea pigs (6-week age). The chemical was administered to the animals once a week, for 6 to 8 weeks. After the final administration of the chemical polymyxin B, 50 ml of PBS (phosphate-buffered saline) was injected into the abdomen of each guinea pig, and the abdominal cells were collected. These were centrifuged at 800 rpm for 5 minutes to collect the precipitate of abdominal infiltrated cells. The precipitated cells were suspended in 1 ml of 40 % Ficol solution (40 % Ficol (manufactured by Pharmacia Co.) in HBSS (Hanks' […] salt solution)), and stratified over a discontinuous density gradient of Ficol (40 to 90 %). This was centrifuged at 1500 rpm for 40 minutes to collect the oxyphile fraction. This operation generally produced oxyphiles having a purity of 99 % or higher. The cells were washed two times with an RPMI1640 medium (0.2 % BSA (bovine serum albumin), manufactured by Boehringer Mannheim Co.), then suspended to have a predetermined cell concentration, and used in the intended experiments. (B) Effect of Inactivating Oxyphiles (Effect of inhibiting the activity of guinea pig oxyphiles to release active oxygen):
2 µl of each chemical to be tested and 180 µl of the cell suspension were added to each well of a 96-well multiwell plate (white plate for chemiluminometry) which had been previously kept at 37°C, and kept therein at 37°C for 10 minutes. After thus kept, 20 µl of PAF (platelet activating factor) (x -10^-6 M) and 20 µl of a luminol solution were added thereto, and immediately the intensity of chemiluminescence of the system was measured, using […]. The data of chemiluminescence for 5 minutes were obtained, from which was calculated the 50 % inhibition concentration of the compound tested (IC50).

Series [2] relates to respiratory tract resistance. As to the kind of experiment: Inhibition of immediate allergic respiratory stenosis in ovalbumin-sensitized asthmatic animal models. It is filed as in vivo, Brown-Norway (BN) rats. As to conditions: intravenous administration of 30 mg/kg, rat models, relative to control maximum resistance after antigen. As for the experimental part: An antigen ovalbumin (OA) was administered to male Brown-Norway (BN) rats to prepare actively-sensitized animal models. To sensitize the animals, 1 ml of the antigen solution (100 mg/ml of Al(OH)3 and 1 mg/ml of OA in aqueous 0.9 % NaCl solution) was subcutaneously administered to the back of each rat. On the other hand, inactivated cells of Bordetella pertussis were suspended in an aqueous solution of 0.9 % NaCl to have a concentration of 1.0 x 10^10 cells/ml. 0.25 ml of the cell suspension was intra-abdominally administered to each rat along with the antigen sensitization. The administration was repeated three times in all, on the 1st, 7th and 14th days. […]
Those actively-sensitized BN rats were anesthetized with sodium pentobarbiturate (50 mg/kg, i.p.), into which was inserted a polyvinyl chloride tube cannula through the respiratory tract. Each rat was purged with air through the cannula, and the respiratory tract resistance was monitored. […] In addition, an additional cannula was inserted into the left common carotid artery of each rat, through which the blood pressure and the heart beat of the rat being tested were monitored. […] On the basis of the time (0, zero) at which the antigen was challenged, the variation (increase or decrease) in the respiratory tract resistance of each rat was recorded at regular intervals before and after the administration of the antigen. […]

The next series concerns bronchial smooth muscle. As to the kind of experiment: Inhibition of contraction of bronchial smooth muscle (histamine-contracted tracheal strips in an organ bath). Also noted: species or system Hartley guinea pigs. As to conditions: 10 µg/ml; contraction with 10 µM histamine = 100 %, relaxation with papaverine = 0 %. As to the method: The tracheae were taken out of male Hartley guinea pigs having a body weight of from 400 to 500 g. These were cut off at the cartilage opposite to the smooth muscle, and sliced into small pieces having a width of 1 mm. Five of these pieces were bound with silk thread into one bundle, of which the both ends were ligated with machine cotton. This was then suspended in an organ bath with applying thereto a tension of 0.5 g. The temperature of the bath was 37°C, and the bath contained a nutrient liquid of Krebs-Hanseleit buffer (118 mM NaCl, 4.6 mM KCl, 1.1 mM MgSO4·7H2O, 1.8 mM CaCl2·2H2O, 24.9 mM NaHCO3, 1.0 mM KH2PO4·2H2O, 11.1 mM glucose). To the nutrient liquid, added was 5 µM indomethacin. The bath was well aerated with a mixed gas of 95 % O2 + 5 % CO2. The suspended tissue was incubated in the organ bath for about 2 hours for habituation in the external environment. Then, this was contracted with 10 µM histamine. After the contraction was stabilized, NA23063D was added to the bath to have a concentration of 0.1, 0.3, 1.0, 3.0, 10 and 30 µg/ml. The reaction in the bath comprising the varying amount of NA23063D was continued until the relaxation of the tissue became stabilized. When no relaxation was admitted in 10 minutes after the addition of the chemical, NA23063D, the concentration of the chemical was increased to the next stage. […]

`O=c1c(-c2ccc(O)c(Oc3ccc(-c4coc5cc(O)cc(O)c5c4=O)cc3)c2)coc2cc(O)ccc12` [NA23063B2]: the “Inhibiting Activity (%)” value in the series with Bovine Phosphodiesterase (Concentration 0.39 µg/ml) is on record as 17.5%; in the series on Bovine Phosphodiesterase (Concentration 0.78 µg/ml), 28.1%; in the series with Bovine Phosphodiesterase (Concentration 1.56 µg/ml), 38.2%; in the series on Bovine Phosphodiesterase (Concentration 3.13 µg/ml), 56.3%; in the series with Bovine Phosphodiesterase (Concentration 6.25 µg/ml) it was 64.9%. Besides, the IC50 on Bovine Phosphodiesterase came to 4.9 µM. In series [1], the Solubility result was “soluble in lower alcohols, acetone, ethyl acetate and dimethylsulfoxide, but insoluble in hexane, petroleum ether and water”.
Turning to `O=c1c(-c2ccc(O)c(-c3cc(-c4coc5cc(O)cc(O)c5c4=O)ccc3O)c2)coc2cc(O)ccc12` [NA23063D], the IC50 in the series with guinea pig oxyphiles is 1.1 µM; on Bovine Phosphodiesterase it was 7.9 µM. Also, in series [2], the “% inhibition (decrease in the respiratory tract resistance)” value turned out to be 54%. The “Inhibiting Activity (%)” value stood at 18.9% in the series with Bovine Phosphodiesterase (Concentration 0.39 µg/ml); 30.7% with Bovine Phosphodiesterase (Concentration 0.78 µg/ml); 34.6% with Bovine Phosphodiesterase (Concentration 1.56 µg/ml); 44.8% in the series on Bovine Phosphodiesterase (Concentration 3.13 µg/ml); 61.0% in the series on Bovine Phosphodiesterase (Concentration 6.25 µg/ml). In addition, the “relaxation of the bronchial smooth muscle” value in the series on bronchial smooth muscle is 61%. The “Solubility in dimethylsulfoxide (DMSO)” value in series [1] is “soluble”. Moreover, the Solubility result in series [1] was “soluble in lower alcohols, acetone, ethyl acetate and dimethylsulfoxide, but insoluble in hexane, petroleum ether and water”.
`O=c1c(-c2ccc(Oc3cc(-c4coc5cc(O)cc(O)c5c4=O)ccc3O)cc2)coc2cc(O)cc(O)c12` [NA23063A]: the IC50 with guinea pig oxyphiles came to 0.1 µM; on Bovine Phosphodiesterase, 2.1 µM. Besides, the “Inhibiting Activity (%)” value amounted to 43.5% in the series on Bovine Phosphodiesterase (Concentration 0.78 µg/ml), 57.8% with Bovine Phosphodiesterase (Concentration 1.56 µg/ml), 60.5% in the series on Bovine Phosphodiesterase (Concentration 3.13 µg/ml) and 79.5% in the series with Bovine Phosphodiesterase (Concentration 6.25 µg/ml). Besides, the Solubility result in series [1] is “soluble in lower alcohols, acetone and ethyl acetate, but insoluble in hexane, petroleum ether and water”.
Regarding `O=c1c(-c2ccc(Oc3cc(-c4coc5cc(O)cc(O)c5c4=O)ccc3O)cc2)coc2cc(O)ccc12` [NA23063B1], the “Inhibiting Activity (%)” value in the series with Bovine Phosphodiesterase (Concentration 0.39 µg/ml) was determined as 17.5%; in the series on Bovine Phosphodiesterase (Concentration 0.78 µg/ml) it was 28.1%; with Bovine Phosphodiesterase (Concentration 1.56 µg/ml), 38.2%; in the series on Bovine Phosphodiesterase (Concentration 3.13 µg/ml), 56.3%; in the series on Bovine Phosphodiesterase (Concentration 6.25 µg/ml), 64.9%. For the same molecule, on Bovine Phosphodiesterase, the IC50 was 4.9 µM. Further, in series [1], the Solubility result is “soluble in lower alcohols, acetone, ethyl acetate and dimethylsulfoxide, but insoluble in hexane, petroleum ether and water”.
Turning to `O=c1c(-c2ccc(O)c(-c3cc(-c4coc5cc(O)cc(O)c5c4=O)ccc3O)c2)coc2cc(O)cc(O)c12` [NA23063C], the IC50 came out at 0.32 µM in the series with guinea pig oxyphiles and 1.3 µM at Bovine Phosphodiesterase. The “Inhibiting Activity (%)” value in the series with Bovine Phosphodiesterase (Concentration 0.39 µg/ml) is recorded as 26.4%; with Bovine Phosphodiesterase (Concentration 0.78 µg/ml) it was 57.7%; in the series with Bovine Phosphodiesterase (Concentration 1.56 µg/ml), 66.5%; in the series with Bovine Phosphodiesterase (Concentration 3.13 µg/ml) it was 77.6%; in the series on Bovine Phosphodiesterase (Concentration 6.25 µg/ml) it was 83.8%. In addition, the Solubility result in series [1] was “soluble in lower alcohols, acetone, ethyl acetate and dimethylsulfoxide, but insoluble in hexane, petroleum ether and water”.

(Values after patent publication EP0829477A1, “NOVEL PHYSIOLOGICALLY ACTIVE NA23063 ANALOGUES, PROCESS FOR PRODUCING THE SAME AND USE OF THE SAME” (NIPPON KAYAKU KABUSHIKI KAISHA, priority 1995, dated 1996).)
